# According to patent publication US20210070748A1, “INHIBITORS OF BRUTONS TYROSINE KINASE” (Pharmacyclics LLC, priority 2015, published 2021):
# Like-named read-outs stand apart in the source and are kept apart here.
# Molecular target: T1, BTK-WT (Homo sapiens, UniProt Q06187)
# T1 construct: purified from insect cells as a full-length construct containing an N-terminal 6X-His tag; His6 (N); made in house; host or cells: insect cells (baculovirus Sf21 in Method B)
# Experiment: Btk in vitro inhibitory activity (one of Method A TR-FRET, Method B electrophoretic mobility shift, Method C radiometric filter binding)
# Format: biochemical
# Details: read-out: BTK-WT (IC50)
# Procedure: Btk kinase activity is determined using a time-resolved fluorescence resonance energy transfer (TR-FRET) methodology. Measurements are performed in a reaction volume of 50 μL using 96-well assay plates. […] The reaction is quenched by the addition of 1.2 equivalents of EDTA (relative to divalent cation) in 25 μL of 1× Lance buffer (Perkin-Elmer). […] The TR-FRET signal is measured on a multimode plate reader with an excitation wavelength (λEx) of 330 nm and detection wavelengths (λEm) of 615 and 665 nm. Activity is determined by the ratio of the fluorescence at 665 nm to that at 615 nm. For each compound, enzyme activity is measured at various concentrations of compound. Negative control reactions are performed in the absence of inhibitor in replicates of six, and two no-enzyme controls are used to determine baseline fluorescence levels. Inhibition constants, Ki(app), were obtained using the program BatchKi(Kuzmic et al. (2000), Anal. Biochem. 286:45-50). IC50s are obtained according to the equation:
# IC50={Ki(app)/(1+[ATP]/Km^ATP)}+[E]total/2;
# Kinase activity is measured in vitro using electrophoretic mobility shift assay. The kinase reactions are assembled in a total volume of 25 μL in 384 well plates. […] The reaction is incubated for one hour and is quenched by the addition of 45 μL of termination buffer (100 mM HEPES, pH7.5, 0.01% Triton X-100, 30 mM EDTA). The terminated reactions are analyzed using 12 channel LabChip® 3000 microfluidic detection instrument (Caliper Life Sciences). […] Change in the relative fluorescence intensity of the substrate and product peaks is the parameter measured, reflecting enzyme activity. In the presence of an inhibitor, the ratio between product and substrate is altered: the signal of the product decreases, while the signal of the substrate increases.
# Activity in each sample is determined as the product to sum ratio (PSR): P/(S+P), where P is the peak height of the product peptide and S is the peak height of the substrate peptide. For each compound, enzyme activity is measured at various concentrations (12 concentrations of compound spaced by 3× dilution intervals). Negative control samples (0%-inhibition in the absence of inhibitor) and positive control samples (100%-inhibition, in the presence of 20 mM EDTA) are assembled in replicates of four and are used to calculate %-inhibition values for each inhibitor at each concentration. Percent inhibition (Pinh) is determined using following equation:
# Pinh=(PSR0%-PSRinh)/(PSR0%−PSR100%)*100, where PSRinh is the product sum ratio in the presence of inhibitor, PSR0% is the average product sum ration in the absence of inhibitor and PSR100% is the average product sum ratio in 100%-inhibition control samples;
# The IC50 values of inhibitors are determined by 4 parameter sigmoidal dose-response model fitting of the inhibition curves (Pinh versus inhibitor concentration) using XLfit 4 software.
# Human Btk kinase (Genbank accession # NP_000052) was purified from insect cells as a full-length construct containing an N-terminal 6X-His tag. Btk kinase activity was determined using a radiometric filter binding assay. Measurements are performed in a low μL reaction volume 384-well assay plates. […] IC50 values and curve fits were obtained using Prism (GraphPad Software).
# T1 sequence (Q06187 whole entry): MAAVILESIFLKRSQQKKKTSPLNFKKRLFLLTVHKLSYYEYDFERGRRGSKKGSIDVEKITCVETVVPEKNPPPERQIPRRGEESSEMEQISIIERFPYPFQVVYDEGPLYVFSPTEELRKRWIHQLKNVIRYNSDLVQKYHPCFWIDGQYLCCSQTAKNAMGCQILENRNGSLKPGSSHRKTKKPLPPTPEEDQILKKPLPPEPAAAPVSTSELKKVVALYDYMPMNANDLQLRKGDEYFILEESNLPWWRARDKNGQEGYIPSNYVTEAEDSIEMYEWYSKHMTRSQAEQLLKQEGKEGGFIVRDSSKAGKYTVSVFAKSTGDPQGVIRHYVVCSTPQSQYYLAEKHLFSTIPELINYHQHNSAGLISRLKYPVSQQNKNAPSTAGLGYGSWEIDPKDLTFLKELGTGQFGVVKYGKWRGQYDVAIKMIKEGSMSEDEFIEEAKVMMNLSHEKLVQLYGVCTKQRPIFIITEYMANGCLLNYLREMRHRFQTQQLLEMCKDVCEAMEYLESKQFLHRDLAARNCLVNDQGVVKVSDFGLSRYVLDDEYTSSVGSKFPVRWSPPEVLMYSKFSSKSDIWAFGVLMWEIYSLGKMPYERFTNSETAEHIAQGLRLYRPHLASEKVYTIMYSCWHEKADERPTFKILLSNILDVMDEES
SMILES,"IC50 (Table 12, Formula C-I)",further results
"C=CC(=O)N[C@@H]1CCC[C@@H](Nc2nnc(C(N)=O)c(Nc3ccc(C(C)C)cc3)n2)C1 (racemic) [Example B-11, 3-((1R,3R)-3-acrylamido-cyclohexylamino)-5-(4-isopropylphenylamino)-1,2,4-triazine-6-carboxamide]",–,"IC50 (Table 11, Formula B-I): ≤ 100 nM"
"C=CC(=O)N[C@H]1CCC[C@@H](Nc2nnc(C(N)=O)c(Nc3ccc(C(C)C)cc3)n2)C1 (racemic) [Example B-12, 3-((1R,3S)-3-acrylamido-cyclohexylamino)-5-(4-isopropylphenylamino)-1,2,4-triazine-6-carboxamide]",–,"IC50 (Table 11, Formula B-I): ≤ 100 nM"
"C=CC(=O)N[C@@H]1CCCN(c2cnc(C(N)=O)c(Nc3cc(C)ns3)n2)C1 [Example A-86, (R)-5-(3-acrylamidopiperidin-1-yl)-3-(3-methylisothiazol-5-ylamino)pyrazine-2-carboxamide]",–,"IC50 (Table 10, Formula A-I): ≤ 100 nM"
"C=CC(=O)N[C@H]1CCCN(c2cnc(C(N)=O)c(Nc3cc(C)ns3)n2)C1 [Example A-87, (S)-5-(3-acrylamidopiperidin-1-yl)-3-(3-methylisothiazol-5-ylamino)pyrazine-2-carboxamide]",–,"IC50 (Table 10, Formula A-I): ≤ 100 nM"
"C=CC(=O)N[C@@H]1CCCN(c2cnc(C(N)=O)c(Nc3cccc(-c4ncccn4)c3)n2)C1 [Example A-88, (R)-5-(3-acrylamidopiperidin-1-yl)-3-(3-(pyrimidin-2-yl)phenylamino)pyrazine-2-carboxamide]",–,"IC50 (Table 10, Formula A-I): 100 to 1000 nM"
"C=CC(=O)N[C@H]1CCCN(c2cnc(C(N)=O)c(Nc3ccc(-c4ncccn4)cc3)n2)C1 [Example A-89, (S)-5-(3-acrylamidopiperidin-1-yl)-3-(4-(pyrimidin-2-yl)phenylamino)pyrazine-2-carboxamide]",–,"IC50 (Table 10, Formula A-I): ≤ 100 nM"
"C=CC(=O)N1CCCN(c2nnc(C(N)=O)c(Nc3ccc(C(C)C)cc3)n2)CC1 [Example A-90, 3-(4-acryloyl-1,4-diazepan-1-yl)-5-(4-isopropylphenylamino)-1,2,4-triazine-6-carboxamide]",–,"IC50 (Table 10, Formula A-I): ≤ 100 nM"
"C=CC(=O)N(C)[C@H]1CC[C@H](N(C)c2cnc(C(N)=O)c(Nc3cc(C)ns3)n2)CC1 [Example B-6, 5-(methyl((1r,4r)-4-(N-methylacrylamido)cyclohexyl)amino)-3-(3-methylisothiazol-5-ylamino)pyrazine-2-carboxamide]",–,"IC50 (Table 11, Formula B-I): ≤ 100 nM"
"C=CC(=O)N[C@H]1CCCC[C@H]1Nc1nnc(C(N)=O)c(Nc2ccc(C(C)C)cc2)n1 [Example B-7, 3-((1R,2S)-2-acrylamido-cyclohexylamino)-5-(4-isopropylphenylamino)-1,2,4-triazine-6-carboxamide]",–,"IC50 (Table 11, Formula B-I): ≤ 100 nM"
"C=CC(=O)N[C@@H]1CCCC[C@H]1Nc1nnc(C(N)=O)c(Nc2ccc(C(C)C)cc2)n1 [Example B-8, 3-((1R,2R)-2-acrylamido-cyclohexylamino)-5-(4-isopropylphenylamino)-1,2,4-triazine-6-carboxamide]",–,"IC50 (Table 11, Formula B-I): ≤ 100 nM"
"C=CC(=O)N[C@H]1CCCC[C@@H]1Nc1nnc(C(N)=O)c(Nc2ccc(C(C)C)cc2)n1 [Example B-9, 3-((1S,2S)-2-acrylamido-cyclohexylamino)-5-(4-isopropylphenylamino)-1,2,4-triazine-6-carboxamide]",–,"IC50 (Table 11, Formula B-I): ≤ 100 nM"
"C=CC(=O)N[C@@H]1CCCC[C@@H]1Nc1nnc(C(N)=O)c(Nc2ccc(C(C)C)cc2)n1 [Example B-10, 3-((1S,2R)-2-acrylamido-cyclohexylamino)-5-(4-isopropylphenylamino)-1,2,4-triazine-6-carboxamide]",–,"IC50 (Table 11, Formula B-I): ≤ 100 nM"
"C=CC(=O)N1CCC[C@H](Nc2nnc(C(N)=O)c(Nc3ccc(C(C)C)cc3)n2)C1 [Example C-17, (S)-3-(1-acryloylpiperidin-3-ylamino)-5-(4-isopropylphenylamino)-1,2,4-triazine-6-carboxamide]",≤ 100 nM,–
"CC(C)c1ccc(Nc2nc(N[C@H]3CCCN(C(=O)CN)C3)nnc2C(N)=O)cc1 [Example C-18, (S)-3-(1-(2-aminoacetyl)piperidin-3-ylamino)-5-(4-isopropylphenylamino)-1,2,4-triazine-6-carboxamide]",100 to 1000 nM,–
"C=CC(=O)NCC(=O)N1CCC[C@H](Nc2nnc(C(N)=O)c(Nc3ccc(C(C)C)cc3)n2)C1 [Example C-19, (S)-3-(1-(2-acrylamidoacetyl)piperidin-3-ylamino)-5-(4-isopropylphenylamino)-1,2,4-triazine-6-carboxamide]",100 to 1000 nM,–
"CC(C)c1ccc(Nc2nc(N[C@H]3CCCN(C(=O)CCCN)C3)nnc2C(N)=O)cc1 [Example C-20, (S)-3-(1-(4-aminobutanoyl)piperidin-3-ylamino)-5-(4-isopropylphenylamino)-1,2,4-triazine-6-carboxamide]",100 to 1000 nM,–
"C=CC(=O)NCCCC(=O)N1CCC[C@H](Nc2nnc(C(N)=O)c(Nc3ccc(C(C)C)cc3)n2)C1 [Example C-21, (S)-3-(1-(4-acrylamidobutanoyl)piperidin-3-ylamino)-5-(4-isopropylphenylamino)-1,2,4-triazine-6-carboxamide]",100 to 1000 nM,–
"C=CC(=O)N1CCC(CNc2nnc(C(N)=O)c(Nc3ccc(C(C)C)cc3)n2)CC1 [Example C-22, 3-((1-acryloylpiperidin-4-yl)methylamino)-5-(4-isopropylphenylamino)-1,2,4-triazine-6-carboxamide]",≤ 100 nM,–
"C=CC(=O)N1CCC[C@H](N(C)c2cnc(C(N)=O)c(Nc3ccc(C(C)C)cc3)n2)C1 [Example C-23, (S)-5-((1-acryloylpiperidin-3-yl)(methyl)amino)-3-(4-isopropylphenylamino)pyrazine-2-carboxamide]",≤ 100 nM,–
"C=CC(=O)N1CCC(CN(C)c2cnc(C(N)=O)c(Nc3ccc(C(C)C)cc3)n2)CC1 [Example C-24, 5-(((1-acryloylpiperidin-4-yl)methyl)(methyl)amino)-3-(4-isopropylphenylamino)pyrazine-2-carboxamide]",≤ 100 nM,–
"C=CC(=O)N1CCC[C@H](N(C)c2cnc(C(N)=O)c(Nc3cc(-c4ccccc4)ns3)n2)C1 [Example C-25, (S)-5-((1-acryloylpiperidin-3-yl)(methyl)amino)-3-(3-phenylisothiazol-5-ylamino)pyrazine-2-carboxamide]",≤ 100 nM,–
"C=CC(=O)N1CCC[C@@H](Nc2nnc(C(N)=O)c(Nc3ccc(C(C)C)cc3)n2)C1 [Example C-26, (R)-3-(1-acryloylpiperidin-3-ylamino)-5-(4-isopropylphenylamino)-1,2,4-triazine-6-carboxamide]",≤ 100 nM,–
"C=CC(=O)N1CCC[C@@H](N(C)c2nnc(C(N)=O)c(Nc3ccc(C(C)C)cc3)n2)C1 [Example C-27, (R)-3-((1-acryloylpiperidin-3-yl)(methyl)amino)-5-(4-isopropylphenylamino)-1,2,4-triazine-6-carboxamide]",≤ 100 nM,–
"C=CC(=O)N1CCC[C@@H](Nc2nnc(C(N)=O)c(Nc3ccc(C(C)C)cc3)n2)[C@H]1C [Example C-28, 3-((2R,3R)-1-acryloyl-2-methylpiperidin-3-ylamino)-5-(4-isopropylphenylamino)-1,2,4-triazine-6-carboxamide]",≤ 100 nM,–
